{
  "source": "patent US20090123979A1",
  "about": "“Methods of reducing the inhibitory effect of a tannin on the enzymatic hydrolysis of cellulosic material” (Novozymes, Inc., priority 2007, published 2009)",
  "key": {"[1]": {"tested_on": "T1, Cellulolytic Enzyme Composition #1", "T1 construct": "other: PASC hydrolysis; mean ± SD; 0.01 g enzyme; Dixon plot linear regression intercept (1/Rate); other: AVICEL; rate from hydrolysis difference (%) at 0 and 6 hours; rate from hydrolysis difference; fused on or other part: The A. oryzae beta-glucosidase is the mature chain secreted behind the Humicola insolens endoglucanase V signal peptide, which is cleaved off", "test": "PCS hydrolysis by Cellulolytic Enzyme Composition #1 with added compounds", "type": "biochemical, Trichoderma reesei", "conditions": "for effect on hydrolysis of PCS by Cellulolytic Enzyme Composition #1: 1 mM each compound, 43.4 g PCS and 0.25 g enzyme per liter, pH 5.0, 50° C.; for loss in initial rate of PCS hydrolysis / loss in the extent of PCS hydrolysis at day 4: 50 g PCS, 0.25 g enzyme per liter, methyl gallate and ellagic acid 10 mM, tannic acid 1 mM", "experimental": "(§1) Corn stover was pretreated at the U.S. Department of Energy National Renewable Energy Laboratory (NREL), […], Colo., USA, using dilute sulfuric acid. The following conditions were used for the pretreatment: 1.4 wt % sulfuric acid at 195° C. for 4.5 minutes. According to limit digestion with excess cellulase enzymes, the water-insoluble solids in the pretreated corn stover (PCS) contained 59.5% cellulose. Prior to use, the PCS was washed with a large volume of deionized water until soluble acid and sugars were removed. The dry weight of the water-washed PCS was 19.16%.\n(§2) The effect of a mixture of tannic acid, ellagic acid, epicatechin, and six lignin constituent compounds (4-hydroxyl-2-methylbenzoic acid, vanillin, coniferyl alcohol, coniferyl aldehyde, ferulic acid, and syringaldehyde) was determined on the hydrolysis of PCS by Cellulolytic Enzyme Composition #1 or Cellulolytic Enzyme Composition #2. […] Cellulolytic Enzyme Composition #1 or Cellulolytic Enzyme Composition #2 was added at 0.25 g per liter. Reactions without the addition of the compounds served as controls. The capped tubes were incubated at 50° C. in an INNOVA® 4080 incubator shaker (New Brunswick Scientific Co., Inc., Edison, N.J., USA) at 150 rpm.\n(§3) Aliquots of the suspensions, sampled over time, were filtered by centrifugation using a 0.45 μm MULTISCREEN® HV membrane (Millipore, Billerica, Mass., USA) at 2000 rpm for 15 minutes using a SORVALL® RT7 centrifuge (Thermo Fisher Scientific, Waltham, Mass., USA). When not used immediately, the filtered aliquots were frozen at −20° C. Sugar concentrations of the samples diluted in 0.005 M H2SO4 were measured after elution by 0.005 M H2SO4 at a flow rate of 0.4 ml/minute from a 4.6×250 mm AMINEX® HPX-87H column (Bio-Rad, Hercules, Calif., USA) at 65° C. with quantitation by integration of glucose and cellobiose using refractive index detection (CHEMSTATION®, AGILENT® 1100 HPLC, Agilent Technologies, Santa Clara, Calif., USA) calibrated with standards of glucose and cellobiose. The resultant equivalents were used to calculate the percentage of cellulose conversion for each reaction.\n(§4) The degree of cellulose conversion to glucose plus cellobiose sugars (conversion, %) was calculated using the following equation:\n(§5) Conversion(%)=(glucose+cellobiose×1.053)(mg/ml)×100×162/cellulose(mg/ml)×180)=(glucose+cellobiose×1.053)(mg/ml)×100/(cellulose(mg/ml)×1.111)\n(§6) In this equation the factor 1.111 reflects the weight gain in converting cellulose to glucose, and the factor 1.053 reflects the weight gain in converting cellobiose to glucose. Cellulose in PCS was determined by a limit digest of PCS to release glucose and cellobiose.\n(§7) Example 30 was repeated except that each compound was tested separately. […] Reactions without the addition of each compound served as controls.\n(§8) The effect of OPC or flavonol on the hydrolysis of PCS by Cellulolytic Enzyme Composition #1 or Cellulolytic Enzyme Composition #2 was determined according to the procedure described in Example 30. OPC and flavonol were present at a concentration of 1 mM. Reactions without the addition of the compounds served as controls.\nMethyl gallate and ellagic acid were compared at 10 mM to 1 mM tannic acid in the hydrolysis of PCS by Cellulolytic Enzyme Composition #1."}, "[2]": {"tested_on": "T2, Cellulolytic Enzyme Composition #2", "T2 construct": "Dixon plot linear regression intercept (1/Rate); other: PCS; rate from hydrolysis difference (%) at 0 and 5 hours; rate from hydrolysis difference (%); Ki (x-intercept of Dixon plot); other: PCS hydrolysis, Cellulolytic Enzyme Composition #2; OPC flavonol-equivalent; Ki expressed as galloyl constituents; oth; fused on or other part: In one component the Humicola insolens endoglucanase V (CEL45A) core is fused in front of the A. oryzae beta-glucosidase", "test": "PCS hydrolysis by Cellulolytic Enzyme Composition #2 with added compounds", "type": "biochemical, Trichoderma reesei", "conditions": "1 mM each compound; 43.4 g PCS and 0.25 g enzyme per liter, pH 5.0, 50° C.", "experimental": "as §1, §2, §3, §4, §5, §6, §7, §8\n(§9) The effective inhibitory concentration range for tannic acid and OPC was also determined by the “mini-scale” hydrolysis described in Example 30 with Cellulolytic Enzyme Composition #2. The concentration of tannic acid ranged from 0.1 mM to 1 mM, while the concentration of OPC ranged from 0.1 mM to 10 mM. Reactions without the addition of the tannic compounds served as controls.\n(§10) However, prior to the addition of Cellulolytic Enzyme Composition #2, the mixture of PCS or OPC and tannic acid was treated with Aspergillus oryzae tannase (Novozymes A/S, Bagsværd, Denmark) at 10% of the final protein level for 30 minutes. Reactions without addition of the tannic acid, OPC, or tannase served as controls."}, "[3]": {"tested_on": "Cellulolytic Enzyme Composition #2", "test": "PCS hydrolysis by Cellulolytic Enzyme Composition #2 with added compounds", "type": "biochemical, Trichoderma reesei", "conditions": "tannase alone, in the absence of tannic acid or OPC", "experimental": "as §1, §2, §3, §4, §5, §6, §7, §8, §9, §10"}, "[4]": {"test": "Tannase reduction of OPC inhibition of PCS hydrolysis by Cellulolytic Enzyme Composition #2", "type": "biochemical", "conditions": "10 mM OPC; 43 g PCS per liter; tannase at 10% of final protein level for 30 minutes", "experimental": "(§11) Tannase was evaluated for its ability to reduce the inhibitory effect of tannic acid on OPC on PCS hydrolysis by Cellulolytic Enzyme Composition #2.\nas §10"}, "[5]": {"test": "Tannase reduction of tannic acid inhibition of PCS hydrolysis by Cellulolytic Enzyme Composition #2", "type": "biochemical", "conditions": "1 mM tannic acid; 43 g PCS per liter; tannase at 10% of final protein level for 30 minutes", "experimental": "as §11, §10"}, "[6]": {"test": "Tannase reduction of tannic acid inhibition of PCS hydrolysis by Cellulolytic Enzyme Composition #1", "type": "biochemical", "conditions": "1 mM tannic acid", "experimental": "To reduce the inhibition, tannase was added at 12.5, 25, and 50 mg per liter (or 0.21, 0.42, and 0.85 μM)."}},
  "data": [
    {"molecule": "O=c1oc2c(O)c(O)cc3c(=O)oc4c(O)c(O)cc1c4c23", "note": "[ellagic acid]", "values": [
      {"measurement": "effect on hydrolysis of PCS by Cellulolytic Enzyme Composition #1", "setting": "[1]", "result": "but not its constituent ellagic acid (FIG. 17C), significantly inhibited"},
      {"measurement": "loss in initial rate of PCS hydrolysis", "setting": "[1]", "result": "~30", "unit": "%"},
      {"measurement": "loss in the extent of PCS hydrolysis at day 4", "setting": "[1]", "result": "~40", "unit": "%"}
    ]},
    {"molecule": "COC(=O)c1cc(O)c(O)c(O)c1", "note": "[methyl gallate]", "values": [
      {"measurement": "loss in initial rate of PCS hydrolysis", "setting": "[1]", "result": "~10", "unit": "%"},
      {"measurement": "loss in the extent of PCS hydrolysis at day 4", "setting": "[1]", "result": "~10", "unit": "%"}
    ]},
    {"molecule": "O=c1c(O)c(-c2ccccc2)oc2ccccc12", "note": "[flavonol]", "values": [
      {"measurement": "effect on hydrolysis of PCS by Cellulolytic Enzyme Composition #2", "setting": "[2]", "result": "not inhibitory"},
      {"measurement": "effect on hydrolysis of PCS by Cellulolytic Enzyme Composition #1", "setting": "[1]", "result": "not its constituent flavonol, was inhibitory"}
    ]},
    {"molecule": "Aspergillus oryzae tannase: Aspergillus oryzae tannase (Novozymes A/S, Bagsværd, Denmark) (protein, listed as Aspergillus oryzae) MPSLRRLLPFLAAGSAALASQDTFQGKCTGFADKINLPNVRVNFVNYVPGGTNLSLPDNPTSCGTTSQVVSEDVCRIAMAVATSNSSEITLEAWLPQNYTGRFLSTGNGGLSGCIQYYDLAYTSGLGFATVGANSGHNGTSGEPFYHHPEVLEDFVHRSVHTGVVVGKQLTKLFYEEGFKKSYYLGCSTGGRQGFKSVQKYPNDFDGVVAGAPAFNMINLMSWSAHFYSITGPVGSDTYLSPDLWNITHKEILRQCDGIDGAEDGIIEDPSLCSPVLEAIICKPGQNTTECLTGKQAHTVREIFSPLYGVNGTLLYPRMQPGSEVMASSIMYNGQPFQYSADWYRYVVYENPNWDATKFSVRDAAVALKQNPFNLQTWDADISSFRKAGGKVLTYHGLMDQLISSENSKLYYARVAETMNVPPEELDEFYRFFQISGMAHCSGGDGAYGIGNQLVTYNDANPENNVLMAMVQWVEKGIAPETIRGAKFTNGTGSAVEYTRKHCRYPRRNVYKGPGNYTDENAWQCV", "values": [
      {"measurement": "increase in hydrolysis extent of PCS by Cellulolytic Enzyme Composition #2", "setting": "[3]", "result": "approximately 2%"},
      {"measurement": "effect of tannase pretreatment on the inhibitory effect of OPC on Cellulolytic Enzyme Composition #2", "setting": "[4]", "result": "significantly reduced"},
      {"measurement": "effect of tannase pretreatment on the inhibitory effect of tannic acid on Cellulolytic Enzyme Composition #2", "setting": "[5]", "result": "significantly reduced"},
      {"measurement": "reduction of tannic acid inhibition", "setting": "[6]; tannase at approximately 12 mg per liter", "result": "approximately 50%"},
      {"measurement": "reduction of tannic acid inhibition", "setting": "[6]; tannase at approximately 25 mg per liter", "result": "~100", "unit": "%"}
    ]}
  ]
}
